In paper PMC6013238, “Development of novel NEMO-binding domain mimetics for inhibiting IKK/NF-κB activation” (PLoS Biology, 2018):
“And” between values parts separate entries of the source, which are not always exact repeats. Identical values can stand only once.

Tests used:
NF-κB activation = assay: NF-κB firefly luciferase reporter assay, TNF-α-stimulated stably transfected HEK293 cells; assay type: cell-based, human; settings: TNF-α 10 ng/ml 3 h, vehicle = 100, single experiments; for NF-κB luciferase activity normalized to vehicle: Fig 2C, derivatives at 100 μM; for NF-κB luciferase activity normalized to untreated stimulated control: Fig 2A, 100 μM, 30 min pretreatment
Procedure: To determine whether the small molecules identified by the in silico screening inhibit NF-κB activation, a HEK293 cell line stably expressing a luciferase reporter driven by a synthetic, NF-κB-dependent promoter was utilized. To induce NF-κB activation, cells were treated with 10 ng/mL of TNF-α and harvested 3 h post treatment for analysis of luciferase activity. […] To determine whether ZINC12909780 inhibits NF-κB in a dose-dependent manner, concentrations were tested at 0, 6.25, 25, 50, and 100 μM.
Luciferase activity was normalized to untreated stimulated control cells. […] Cell viability was calculated by normalizing to untreated cells. […] Underlying data can be found in S1 Data.
HEK293 cells stably transfected with luciferase reporter plasmid driven by NF-κB were seeded in 96-well plates in triplicate and pretreated with DMSO or varying small molecules at indicated concentration for 30 min, followed by the stimulation of 10 ng/ml of TNF-α for 3 h. Cells were washed with PBS once and harvested in Passive Lysis Buffer (Promega, Madison, WI). Luciferase assay (Promega) was performed by using a luminometer according to the manufacturer’s instructions.

HEK293 cells = settings: Fig 2D; 100 μM, 24 h
Procedure: (A) HEK293 cells stably expressing NF-κB luciferase reporter were pretreated with indicated small molecules at 100 μM for 30 min, followed by stimulation with TNF-α (10 ng/ml) for 3 h. Luciferase activity was normalized to untreated stimulated control cells. […] (B) The dose-dependent response of ZINC12909780 was tested by NF-κB luciferase assay in HEK293 cells. Three independent experiments were performed, and data shown represent mean +/− SD. […] (D) HEK293 cells were cultured in the presence of 100 μM of indicated derivatives for 24 h, and cell survival was determined by MTT assay. Cell viability was calculated by normalizing to untreated cells. (E) Dose-dependent inhibitory effects were determined for ZINC5 at 0, 25, 50, and 100 μM by using NF-κB luciferase assay. (F) HEK293 were cultivated in the presence of ZINC5 at listed concentrations for 24 h, and cell survival was assessed by MTT assay. Data represent the mean +/− SD from 4–5 independent experiments. *P < 0.05; **P < 0.01; ***P < 0.001. Underlying data can be found in S1 Data. HEK293, human embryonic kidney 293 cells; MTT, 3-(4,5-dimethylthiazol-2-yl)-2,5-dephenyltetrazolium bromide colormetric assay for assessing cell metabolic activity; NF-κB, nuclear factor κB; TNF-α; tumor necrosis factor α; SD, standard deviation.
HEK293 cells were grown in a 96-well plate at 3 × 10^4 cells/well in triplicate and treated with DMSO or listed small molecules at indicated concentrations for 24 h. Cell survival was determined by adding 20 μl of 5 mg/ml MTT (thiazolyl blue tetrazolium bromide) to each well, followed by incubation in 37 °C for 3 h. Media were removed, and purple formazan was dissolved in 100 uL of DMSO. Absorbance was measured at 590 nm on a microplate reader (PerkinElmer, Waltham, MA). Cell viability was calculated by normalizing values to untreated controls.

IL-6 production = assay: Mouse IL-6 ELISA of supernatant of LPS-stimulated Raw 264.7 cells; assay type: cell-based; settings: Fig 4D; IKKi VII 2 μM; LPS 1 μg/ml 24 h
Procedure: Fig 4 Modified lead NBD mimetics inhibit TNF-α- and LPS-induced NF-κB activation by disrupting the association between NEMO and IKKβ. (A) Structures of top NBD mimetics. (B) Measurement of NF-κB activation in response to TNF-α by using Dual-luciferase reporter assays. HEK293 cells cotransfected with NF-κB luciferase reporter and SV40-Renilla plasmids were pretreated with DMSO or listed small molecules at 0, 25, 50, 100, and 150 μM for 30 min, followed by the induction of TNF-α for 3 h. Data shown are representative of 2–3 independent experiments. […] Raw 264.7 cells were pretreated with indicated drugs for 30 min and then stimulated with 1 μg/ml of LPS for 2 h. Cells were then harvested for RNA extraction and qRT-PCR analysis. Drug concentrations used are as follows: IKKi VII (2 μM), 8K-NBD peptide (200 μM), SR12343 (50 μM), SR12460 (50 μM), SR12454 (50 μM), and SR11481 (50 μM). Data are representative of 2 independent experiments. […] Raw 264.7 cells pretreated with DMSO or drugs at indicated concentrations were exposed to 1 μg/ml of LPS for 24 h, and supernatant was collected for ELISA analysis of mouse IL-6. *P < 0.05; **P < 0.01. Underlying data can be found in S1 Data. HEK293, human embryonic kidney 293 cells; IKK, IκB kinase; IL-6, interleukin 6; LPS, lipopolysaccharide; NBD, NEMO-binding domain; n.d., nondetectable; NEMO, NF-κB essential modulator; NF-κB, nuclear factor κB; qRT-PCR, […] real-time polymerase chain reaction; TNF-α; tumor necrosis factor α. TEXT PRINTED IN THE PICTURE: (D) ikki VII: mIL-6 (ng/ml): n.d. | (D) SR12460: mIL-6 (ng/ml): n.d. (50μM) | (D) SR12454: mIL-6 (ng/ml): n.d. (50μM) DOUBTS OF THE COPYIST ABOUT THIS PICTURE: Panel D: the only printed results are the three "n.d." labels. They stand in place of bars and are assigned to ikki VII, SR12460 50μM and SR12454 50μM by their position on the axis. All other results are shown only as bars, with no printed numbers.
To confirm the qRT-PCR results, the levels of IL-6 production in Raw 264.7 cells activated by LPS were analyzed by ELISA.
Raw 264.7 cells were grown in 96-well plates and pretreated with vehicle, IKKi VII (2 μM), and small molecules (at indicated concentration) for 1 h, followed by the stimulation with 1 μg/ml of LPS. Supernatant was collected 24 h later for ELISA analysis. IL-6 concentration was measured using a mouse IL-6 ELISA kit (BD) according to the manufacturer’s instructions.

NF-κB target genes = assay: qRT-PCR of NF-κB target genes in LPS-stimulated Raw 264.7 cells; assay type: cell-based, mouse; settings: Fig 4C, LPS 1 μg/ml 2 h, IKKi VII 2 μM, 8K-NBD 200 μM, SR compounds 50 μM, relative to no LPS

| Structure (SMILES) | NF-κB luciferase activity normalized to vehicle (NF-κB activation) | Cell viability normalized to untreated cells (MTT) (HEK293 cells) | further results |
| --- | --- | --- | --- |
| O=C(COC(=O)c1nc(Cl)ccc1Cl)Nc1ccc(Cl)cn1 [ZINC3] | 111.63 and 103.8 and 115.96 and 89.11 and 115.8 | 97 and 81 and 75 |  |
| O=C(c1ccc(Nc2nccc(-c3cc4ccccc4s3)n2)cc1)N1CCC(N2CCCC2)CC1 [IKKi VII, reference compound] | lowered NF-κB activity robustly |  | mIL-6 in supernatant (ELISA) (IL-6 production): 0 ng/mL; iNOS mRNA expression (qRT-PCR) (NF-κB target genes): failed to down-regulate iNOS expression; COX2 mRNA expression (qRT-PCR) (NF-κB target genes; listed as ikki VII): 169.382 and 169.611 and 190.029; IL6 mRNA expression (qRT-PCR) (NF-κB target genes; listed as ikki VII): 61.5373 and 59.8482 and 47.3662; IL-1b mRNA expression (qRT-PCR) (NF-κB target genes; listed as ikki VII): 67.7567 and 72.7507 and 75.5037; TNFa mRNA expression (qRT-PCR) (NF-κB target genes; listed as ikki VII): 61.1388 and 68.3653 and 68.6282; iNOS mRNA expression (qRT-PCR) (NF-κB target genes; listed as ikki VII): 24.1042 and 20.2843 and 19.9052; ikBa mRNA expression (qRT-PCR) (NF-κB target genes; listed as ikki VII): 8.329 and 8.125 and 9.136 |
| O=C(COC(=O)c1ccc(F)cc1F)Nc1ccc(Cl)cn1 [ZINC12] | 95.61 and 79.06 and 109.79 and 80.64 and 92.59 | 94 and 85 and 87 |  |
| O=C(COC(=O)c1ncc(Cl)c(Cl)c1Cl)Nc1ccc(Cl)cn1 [ZINC1] | lowered NF-κB activity robustly |  |  |
| O=C(COC(=O)Cc1ccccc1)Nc1ncc(Cl)cc1Cl [ZINC9] | 67.06 and 59.84 and 88.3 and 70.04 and 84.32 | 92 and 86 and 88 | NF-κB luciferase activity normalized to vehicle (NF-κB activation; listed as Zinc9): lowered NF-κB activity robustly |
| O=C(COC(=O)c1cccnc1Cl)Nc1ncc(Cl)cc1Cl [ZINC6] | 114.53 and 96.57 and 113.68 and 101.67 and 104.3 | 90 and 71 and 78 and 92 |  |
| O=C(COC(=O)c1cccc(F)c1)Nc1ccc(Cl)cn1 [ZINC14] | 108.83 and 98.08 and 117.73 and 100.75 and 124.98 | 60 and 64 and 68 and 84 |  |
| O=C(COC(=O)c1ccc(Cl)nc1)Nc1ncc(Cl)cc1Cl [ZINC11] | 90.11 and 74.66 and 111.57 and 92.82 and 119.55 | 77 and 62 and 78 and 72 |  |
| O=C(COC(=O)c1cccc2ccccc12)Nc1ncc(C(F)(F)F)cc1Cl [ZINC8] | 56.26 and 53.09 and 63.7 and 43.79 and 59.31 | 51 and 82 and 57 and 61 | NF-κB luciferase activity normalized to vehicle (NF-κB activation; listed as Zinc8): lowered NF-κB activity robustly |
| O=C(COC(=O)c1nc(Cl)ccc1Cl)Nc1ncc(Cl)cc1Cl [ZINC2] | 87.9 and 94.94 and 107.72 and 95.11 and 110.04 |  |  |
| NC(=O)COC(=O)c1cccnc1Nc1ccccc1F [ZINC13] | 100.33 and 91.05 and 121.31 and 95.5 and 122.97 | 82 and 81 and 84 and 90 |  |
| O=C(COC(=O)c1ccc2ccccc2c1)Nc1ncc(C(F)(F)F)cc1Cl [ZINC4] | 99.2 and 99.51 and 98.62 and 84.84 and 111.34 | 62 and 80 and 74 and 70 |  |
| O=C(COC(=O)c1c2ccccc2cc2ccccc12)Nc1ncc(C(F)(F)F)cc1Cl [ZINC7] | 99.14 and 98.45 and 107.93 and 94.89 | 73 and 51 and 70 and 69 |  |
| O=C(COC(=O)c1ccc(F)cc1)Nc1ccc(Cl)cn1 [ZINC15] | 103.61 and 97.73 and 103.85 and 95.58 and 115.08 | 58 and 77 and 86 |  |
| O=C(COC(=O)c1ccccn1)Nc1ncc(C(F)(F)F)cc1Cl [ZINC10] | 108.77 and 101.36 and 116.46 and 94.96 and 126.1 | 89 and 65 and 84 and 79 |  |
| O=C(NN=C1CCN(Cc2ccccc2)CC1)[C@H]1C[C@@H]1c1ccccc1 [ZINC05682974] |  |  | NF-κB luciferase activity normalized to untreated stimulated control (NF-κB activation): remained unchanged; NF-κB luciferase activity normalized to untreated stimulated control (NF-κB activation; listed as ZINC05682947): 105.454 and 97.4199 |
